Data published in patent publication US7041639B2, “Depsipeptide and congeners thereof for use as immunosuppressants” (XCYTE Therapies, Inc., priority 1999, dated 2006).

Tests used:
[1] = test system: Haras transfected mouse fibroblasts (NIH-3T3); details: background statement; cited from earlier work
CD4 cells = assay: Proliferation by MTT assay, purified CD4 cell cultures; assay type: cell-based, human; details: for concentration with no significant effect on proliferation of CD4 cells / lowest concentration that completely inhibits proliferation of CD4 cells: MTT day 3; for lowest concentration that completely inhibits proliferation of CD4 cells: 2 hour incubation prior to stimulation
Protocol: Cells isolated from human blood are grown in X-vivo media (Biowhittaker Inc., Walkersville, Md.) and depending on use supplemented with or without 20 U/ml IL-2 (Boehringer Mannheim, Indianapolis, Ind.) and supplemented with 5% human serum (Biowhittaker), 2 mM Glutamine (Life Technologies, Rockville, Md.) and 20 mM HEPES (Life Technology). Jurkat E6-1 cells (ATCC, Manassas, Va.) are grown in RPMI 1640 (Life Technologies) supplemented with 10% fetal bovine serum (FBS) (Biowhittaker), 2 mM glutamine (Life Technologies), […] (Life Technologies), and […] (Life Technologies).
Buffy coats from healthy human volunteer donors are obtained (American Red Cross, Portland, Oreg.). Peripheral blood mononuclear cells (PBMC) are obtained using Lymphocyte Separation Media (ICN Pharmaceuticals, Costa Mesa, Calif.) according to the manufacturers' instructions.
Peripheral blood lymphocytes (PBL) are obtained from the PBMC fraction by incubation in a culture flask (Costar, Pittsburgh, Pa.) or with uncoated Dynabeads (Dynal, Oslo, Norway), 1×10^8 cells/ml, 2 beads/cell, 2 h at 37° C. Monocytes and macrophages are removed by adherence to the culture flask or phagocytoze the paramagnetic beads that are depleted by magnetic cell separation according to the manufacture's instruction (Dynal). CD4 cells are purified from the PBL fraction by incubation with 10 μg/ml of monoclonal antibodies against CD8 (clone G10-1), CD20 (clone IF5), CD14 (clone F13) and CD16 (Coulter), 10^8 cells/ml, 20 min at 4° C. After washing, cells are depleted twice with sheep anti-mouse Ig-coupled dynabeads (10^6 cells/ml, 6 beads/cell, 20 min at 4° C.) and magnetic cell separation. The purity of CD4 cells are routinely 91–95% as measured by flow cytometry.
Dendritic cells are generated from PBMC adhering to the culture flask (Costar), 10^8 cells/ml, 2 h at 37° C. (without Dynabeads). After extensive washing, adherent cells are cultured for 7 days in media containing 500 U/ml GM-CSF (Boehringer-Mannheim) and 12.5 U/ml IL-4 (Boehringer-Mannheim). The resulting cell population is weakly adherent and expresses surface markers characteristic of dendritic cells (positive for HLA-DR, CD86, CD83, CD11c and negative for CD4). (note:all antibodies obtained from Becton Dickinson, Calif.).
Cells are stimulated by three different methodologies 1) Dynabeads (M-450) covalently coupled to anti-CD3 (OKT-3) and anti-CD28 (9.3) antibodies (3×28 beads) according to the manufacturer's instructions (Dynal), 3 beads/cell, 2) Ionomycin (Calbiochem, La Jolla, Calif.) (100 ng/ml) and phorbol 12-myristate-13-acetate (PMA) (Calbiochem) (10 ng/ml), 3) allogeneic dendritic cells (25,000 dendritic cells/200,000 CD4 cells). All cells are stimulated at a concentration of 1×10^6 cells/ml. Cells are incubated with compounds of structure (I) (e.g., FR901228) (NCI, Bethesda, Md.) for 1 to 2 hours prior to stimulation as outlined above. Proliferation assays are conducted in quadruplicate in 96 well flat-bottom plates. Cells are stimulated at 1×10^6 cells/ml in a final volume of 200 μl. Proliferation is measured by MTT assay (MTT assay kit, Chemicon International Inc., Temecula, Calif.) at day 3 (stimulation method 1 and 2) or at day 6 (stimulation method 3), and results are presented as mean value of quadruplicates. PBL cultures or purified CD4 cell cultures are stimulated with 3×28 beads, ionomycin/PMA or allogenic dendritic cells. […] Further, […] cell survival is not affected by FR901228, as assessed by sub-G1 DNA measurement and integrity of the cell membrane (FIG. 5D). Lack of cytotoxicity of FR901228 is in agreement with results described by Byrd et al, Blood 94(4):1401–1408, 1999; Bates et al., Clinical Pharmacology, Programs and Proceedings of American Society of Clinical Oncology, Abstract 693, 1999; and Chassaing et al., J. Chrmatogr. B 719:169–176, 1998.

For `C/C=C1\NC(=O)[C@H]2CSSCC/C=C/[C@H](CC(=O)N[C@H](C(C)C)C(=O)N2)OC(=O)[C@H](C(C)C)NC1=O` [FR901228], the “transformation of Haras transfected NIH-3T3” value [1] is listed as “inhibit transformation”, the “concentration with no significant effect on proliferation of CD4 cells” value (CD4 cells; 3×28 beads) is listed as no more than 1 ng/mL and the “lowest concentration that completely inhibits proliferation of CD4 cells” value (CD4 cells; 3×28 beads) is listed as 10 ng/mL. For the same compound, the “T-cell proliferation on addition of IL-2” value (CD4 cells; addition of 100 U/ml IL-2) was “will not restore proliferation”, the “lowest concentration that significantly inhibits proliferation induced by allogenic dendritic cells” value (CD4 cells; allogenic dendritic cells, MTT day 6) was 1 ng/ml and the “concentration with no significant effect on proliferation of CD4 cells” value (CD4 cells; ionomycin/PMA) was no more than 1 ng/mL. For the same compound, the “lowest concentration that completely inhibits proliferation of CD4 cells” value (CD4 cells; ionomycin/PMA) was 10 ng/mL, the “inhibition of CD4 positive T-cell proliferation” value (CD4 cells; stimulation by anti-CD3/anti-CD28 beads, FIG. 3) was “dose dependent inhibition” and the “inhibition of CD4 positive T-cell proliferation” value (CD4 cells; stimulation with in vitro generated allogenic dendritic cells, FIG. 4) was “dose dependent inhibition”.
